{
  "source": "patent US12678413B2",
  "about": "“Compositions containing pterosin compound and derivatives thereof active ingredients for prevention or treatment of degenerative brain diseases” (priority 2017, dated 2026)",
  "key": {"[1]": {"system": "NIH3T3 cells", "experiment": "MTT cytotoxicity assay, normal cell line NIH3T3", "format": "cell-based", "details": "NIH3T3 mouse embryo fibroblast, 48 hours incubation", "experimental": "(§1) The normal cell line NIH3T3 (mouse embryo fibroblast cell-line) and the cancerous cell line B16F10 (mouse melanoma cell-line) were separately grown in 96-well plates and incubated for 48 hours with predetermined concentrations of each of the compounds. After additional incubation with MTT, absorbance at 550 nm was read using a microplate reader. Absorbance is an index accounting for a number of viable cells and was used to calculate cell proliferation rates according to the following formula. All experiments were conducted three times for reproducibility. Cell proliferation rate (%)=OD550(sample)/OD550(control)\n(§2) Then, LD50 (Lethal Dose 50) values were calculated on the basis of changes in the cell proliferation rate."}, "[2]": {"system": "B16F10 cells", "experiment": "MTT cytotoxicity assay, cancerous cell line B16F10", "format": "cell-based", "details": "B16F10 mouse melanoma, 48 hours incubation", "experimental": "as §1, §2"}, "[3]": {"target": "T1, BACE1 (β-secretase, recombinant human enzyme) (Homo sapiens, UniProt P56817)", "T1 construct": "purchased Pan Vera Co. (Madison, WI, USA)", "T1 sequence (P56817 46-501)": "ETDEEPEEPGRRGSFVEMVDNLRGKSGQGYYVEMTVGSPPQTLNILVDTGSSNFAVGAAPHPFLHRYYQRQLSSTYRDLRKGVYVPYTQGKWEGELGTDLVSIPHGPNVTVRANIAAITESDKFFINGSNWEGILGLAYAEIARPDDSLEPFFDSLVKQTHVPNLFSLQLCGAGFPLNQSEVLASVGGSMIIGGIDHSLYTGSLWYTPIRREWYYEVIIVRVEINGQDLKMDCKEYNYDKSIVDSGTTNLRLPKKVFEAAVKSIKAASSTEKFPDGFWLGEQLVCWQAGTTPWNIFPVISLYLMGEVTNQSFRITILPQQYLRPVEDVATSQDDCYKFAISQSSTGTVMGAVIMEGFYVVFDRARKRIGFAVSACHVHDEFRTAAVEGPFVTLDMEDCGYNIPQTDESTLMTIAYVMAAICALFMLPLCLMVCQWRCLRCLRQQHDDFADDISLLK", "experiment": "In vitro BACE1 activity assay (FRET kit)", "format": "biochemical", "details": "compounds in 10% DMSO, concentrations up to 125 μM", "text": "BACE1 (beta-secretase) FRET assay kit was purchased from Pan Vera Co. (Madison, WI, USA). All the chemicals and solvents used in column chromatography were of reagent grade and were used as received without further purification.\nA BACE1 fluorescence resonance energy transfer (FRET) assay kit (β-secretase, recombinant human enzyme) was purchased from Pan Vera Co. (Madison, WI, USA).\nBACE1 is an enzyme promotive of the production of β-amyloid, which destroys neurons. In order to examine the effects on the compounds of Table 1 on the activity of BACE1, IC(inhibition concentrations)50 values were determined by measuring BACE1 activity in vitro according to Experimental Methods."}, "[4]": {"target": "T2, acetylcholinesterase (AChE) (Electrophorus electricus, UniProt O42275)", "T2 construct": "purchased Sigma-Aldrich Co. (St. Louis, MO, USA)", "T2 sequence (O42275 24-633)": "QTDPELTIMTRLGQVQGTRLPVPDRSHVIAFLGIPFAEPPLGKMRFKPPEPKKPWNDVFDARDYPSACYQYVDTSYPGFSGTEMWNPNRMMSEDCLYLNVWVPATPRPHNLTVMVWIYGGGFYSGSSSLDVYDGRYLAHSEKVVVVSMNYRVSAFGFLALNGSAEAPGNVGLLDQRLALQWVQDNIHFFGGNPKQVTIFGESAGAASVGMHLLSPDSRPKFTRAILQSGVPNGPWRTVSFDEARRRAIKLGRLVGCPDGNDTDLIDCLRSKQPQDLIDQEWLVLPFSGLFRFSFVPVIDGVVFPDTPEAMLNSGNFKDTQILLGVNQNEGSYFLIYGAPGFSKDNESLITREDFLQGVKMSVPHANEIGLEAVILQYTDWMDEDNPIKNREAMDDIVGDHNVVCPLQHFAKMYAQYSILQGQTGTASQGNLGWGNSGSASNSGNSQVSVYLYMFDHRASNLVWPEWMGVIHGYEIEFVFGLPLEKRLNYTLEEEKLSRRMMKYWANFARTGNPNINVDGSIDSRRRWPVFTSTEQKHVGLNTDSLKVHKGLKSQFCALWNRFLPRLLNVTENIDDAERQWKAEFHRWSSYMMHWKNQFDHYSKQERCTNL", "experiment": "In vitro cholinesterase activity assay (Ellman), AChE", "format": "biochemical", "details": "for SI: selectivity index (BChE/AChE): ratio of IC50 BChE/AChE", "experimental": "(§3) The reaction started with the addition of 10 μL of DTNB and 10 μL of Ach or Bch.\n(§4) Briefly, the basis for this assay is the hydrolysis of acetylthiocholine by acetylcholinesterase, producing thiocholine that reacts with DTNB. […] Degrees of inhibition were calculated according to […] wherein E and S represent enzyme activities in the presence and absence of a test sample, respectively.\n(§5) The compounds of Table 1 were evaluated for anti-Alzheimer activity. In this regard, inhibitory activity against AChE (acetylcholinesterase) and BChE (butyrylcholinesterase), which lyse acetylcholine in the central nervous system, was measured according to the Experimental Method to calculate IC(inhibition concentrations)50 values."}, "[5]": {"target": "T3, butyrylcholinesterase (BChE) (Equus caballus, UniProt P81908)", "T3 construct": "horse serum butyrylcholinesterase (BChE, EC3.1.1.8); purchased Sigma-Aldrich Co. (St. Louis, MO, USA); host or cells: horse serum", "T3 sequence (P81908 whole entry)": "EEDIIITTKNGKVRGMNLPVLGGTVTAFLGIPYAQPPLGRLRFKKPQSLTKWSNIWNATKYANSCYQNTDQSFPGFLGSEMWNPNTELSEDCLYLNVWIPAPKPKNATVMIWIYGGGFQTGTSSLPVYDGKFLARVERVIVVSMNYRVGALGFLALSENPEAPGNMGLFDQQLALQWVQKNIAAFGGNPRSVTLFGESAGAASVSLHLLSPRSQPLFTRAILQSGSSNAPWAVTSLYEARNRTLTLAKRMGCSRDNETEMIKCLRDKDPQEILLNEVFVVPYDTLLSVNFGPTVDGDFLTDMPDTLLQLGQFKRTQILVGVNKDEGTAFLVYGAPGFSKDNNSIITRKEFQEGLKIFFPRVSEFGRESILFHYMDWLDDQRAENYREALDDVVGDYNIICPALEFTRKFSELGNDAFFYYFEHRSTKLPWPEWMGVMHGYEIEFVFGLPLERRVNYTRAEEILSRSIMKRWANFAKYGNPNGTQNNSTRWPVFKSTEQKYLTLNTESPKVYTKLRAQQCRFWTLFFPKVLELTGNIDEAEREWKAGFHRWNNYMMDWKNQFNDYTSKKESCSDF", "experiment": "In vitro cholinesterase activity assay (Ellman), BChE", "format": "biochemical", "details": "concentrations up to 125 μM; Mean ± SEM; read-out: IC50 Butyrylcholine esterase Mean ± SEM", "experimental": "as §3, §4, §5"}, "[6]": {"target": "T4, BACE1 (Homo sapiens, UniProt P56817)", "T4 construct": "purchased Pan Vera Co. (Madison, WI, USA)", "T4 sequence (P56817 46-501)": "as the sequence (P56817 46-501) above", "experiment": "BACE1 enzyme kinetics (Dixon plot and Lineweaver plot)", "format": "biochemical", "experimental": "A BACE1 fluorescence resonance energy transfer (FRET) assay kit (β-secretase, recombinant human enzyme) was purchased from Pan Vera Co. (Madison, WI, USA). The assay was carried out according to the manual provided, with a modification made thereto as described by Jung et al. (Jung et al., Biol Pharm Bull, 2010, 33:267-272). Quercetin was used as a positive control.\nIn addition, an enzyme kinetics experiment was conducted using the Lineweaver plot and Dixon plot (see FIG. 7) in order to examine the BACE1 inhibition mechanism of the novel compound (Compound 2). […] The results of the experiment indicate that the novel compound of the present disclosure is a very potent inhibitor against BACE1."}, "[7]": {"target": "T2, acetylcholinesterase (AChE)", "experiment": "AChE enzyme kinetics (Dixon plot and Lineweaver plot)", "format": "biochemical", "experimental": "as §3, §4"}, "[8]": {"target": "T3, butyrylcholinesterase (BChE)", "experiment": "BChE enzyme kinetics (Dixon plot and Lineweaver plot)", "format": "biochemical", "experimental": "as §3, §4"}},
  "note": "Like-named read-outs stand apart in the source and are kept apart here.",
  "data": [
    {"smiles": "Cc1cc2c(c(C)c1CCO[C@@H]1OC(CO)[C@@H](O)[C@H](O)C1O)C(=O)[C@H](C)C2", "note": "(stereo partly drawn) [Compound 14, (2R)-pteroside B]", "values": [
      {"measurement": "LD50 Normal cell NIH3T3", "setting": "[1]", "result": ">5,000 μM"},
      {"measurement": "LD50 Cancer cell B16F10", "setting": "[2]", "result": ">5,000 μM"},
      {"measurement": "IC50", "setting": "[3]", "result": "43.4 ± 3", "unit": "µM"},
      {"measurement": "SI: selectivity index (BChE/AChE)", "setting": "[4]", "result": 6.9},
      {"measurement": "IC50", "setting": "[5]", "result": "17.6 ± 3.1", "unit": "µM"},
      {"measurement": "Inhibition type BACE1", "setting": "[6]", "result": "noncompetitive type"},
      {"measurement": "Ki", "setting": "[6]", "result": 72.5, "unit": "µM"},
      {"measurement": "Inhibition type BACE1", "setting": "[6]; listed as (2R)-Pteroside B", "result": "Noncompetitive"},
      {"measurement": "Inhibition type Acetylcholinesterase", "setting": "[7]", "result": "mixed type"},
      {"measurement": "Inhibition type Acetylcholinesterase", "setting": "[7]; listed as (2R)-Pteroside B", "result": "Mixed-type"},
      {"measurement": "Inhibition type Butyrylcholinesterase", "setting": "[8]", "result": "mixed type"},
      {"measurement": "Inhibition type Butyrylcholinesterase", "setting": "[8]; listed as (2R)-Pteroside B", "result": "Mixed-type"}
    ]},
    {"smiles": "Cc1c(CCO[C@@H]2OC(CO)[C@@H](O)[C@H](O)C2O)c(CO)cc2c1C(=O)[C@@H](C)C2", "note": "(stereo partly drawn) [Compound 19, (2S)-pteroside P]", "values": [
      {"measurement": "LD50 Normal cell NIH3T3", "setting": "[1]", "result": ">5,000 μM"},
      {"measurement": "LD50 Cancer cell B16F10", "setting": "[2]", "result": ">5,000 μM"},
      {"measurement": "IC50", "setting": "[3]", "result": "81.3 ± 3.9", "unit": "µM"},
      {"measurement": "IC50", "setting": "[4]; concentrations up to 125 μM, Mean ± SEM, read-out: IC50 Acetylcholine Esterase Mean ± SEM", "result": "57.5 ± 3.2", "unit": "µM"},
      {"measurement": "SI: selectivity index (BChE/AChE)", "setting": "[4]", "result": 0.57},
      {"measurement": "IC50", "setting": "[5]", "result": "33.2 ± 3", "unit": "µM"}
    ]}
  ]
}
